Twelve compounds from patent EP4678638A1, “NEW E3 UBIQUITIN LIGASE LIGAND, PROTEIN DEGRADATION AGENT AND USE THEREOF” (priority 2023, dated 2024) can be followed below.

Each structure is given as a SMILES string.

One assay addresses T1, RSK2 (Homo sapiens, UniProt P51812).
T1 construct: evaluate the effects of the compounds of the present disclosure on the expression of target proteins in cells; endogenous in cells; host or cells: hPBMC
Briefly: Western blot degradation of RSK2 (hPBMC). To be noted: Table D8. In kind it is cell-based. The protocol:
(§1) Conventional Western blot assay was performed to evaluate the effects of the compounds of the present disclosure on the expression of target proteins in cells.
(§2) (1) Cell Seeding and Protein Harvesting: The selected cells were processed according to the cell seeding procedure and protein harvesting procedure in Table III-2. Table III-2 Cell Seeding and Protein Harvesting Procedures
(§3) (2) To the collected supernatant, 5X SDS sample loading buffer was added, followed by denaturation at 95°C for 5 minutes. The denatured samples were then separated by SDS-PAGE electrophoresis on a polyacrylamide gel. Proteins were transferred to a nitrocellulose membrane (0.45 µm NC membrane), blocked with blocking buffer at room temperature for 1 hour, and subjected to antibody incubation and development procedures according to the antibody manufacturer's instructions (Cell Signaling Technology).
(§4) Half-Maximal Degradation Concentration value (the drug concentration required for degrading proteins by 50%, abbreviated as DC50) reads method: comparing the grayscale values of Western blot bands from drug-treated samples with those from blank DMSO-treated controls, and identifying the drug concentration range at which the grayscale value is half that of the DMSO-treated control bands.
(§5) DC50 values can be calculated using ImageJ software to measure grayscale values of Western blot bands from drug-treated samples. The concentration-response curve is fitted to estimate the drug concentration corresponding to half the grayscale value.
(§6) Target protein remaining (%) refers to the percentage of target protein remaining in hPBMC cells after treatment with protein degrader compounds.
(§7) Calculation method for target protein remaining (%): Use ImageJ software to measure grayscale values of Western blot bands from drug (protein degrader)-treated samples. The grayscale value of drug-treated bands is divided by that of internal control protein bands, and the resulting quotient is normalized to obtain the relative percentage of remaining target protein after protein degrader treatment.
(§8) Target protein degradation rate (%) = 100% - target protein remaining (%).
(In general: In western blotting, separated proteins are transferred to a membrane and probed.)

In the next assay the target is T2, RSK1 (Homo sapiens, UniProt Q15418).
T2 construct: evaluate the effects of the compounds of the present disclosure on the expression of target proteins in cells; endogenous in cells; host or cells: hPBMC
Kind of assay: Western blot degradation of RSK1 (hPBMC). The class given is cell-based. As to conditions: Table D8. The method, then:
as §1, §2, §3, §4, §5, §6, §7, §8

T1 sequence (P51812 whole entry): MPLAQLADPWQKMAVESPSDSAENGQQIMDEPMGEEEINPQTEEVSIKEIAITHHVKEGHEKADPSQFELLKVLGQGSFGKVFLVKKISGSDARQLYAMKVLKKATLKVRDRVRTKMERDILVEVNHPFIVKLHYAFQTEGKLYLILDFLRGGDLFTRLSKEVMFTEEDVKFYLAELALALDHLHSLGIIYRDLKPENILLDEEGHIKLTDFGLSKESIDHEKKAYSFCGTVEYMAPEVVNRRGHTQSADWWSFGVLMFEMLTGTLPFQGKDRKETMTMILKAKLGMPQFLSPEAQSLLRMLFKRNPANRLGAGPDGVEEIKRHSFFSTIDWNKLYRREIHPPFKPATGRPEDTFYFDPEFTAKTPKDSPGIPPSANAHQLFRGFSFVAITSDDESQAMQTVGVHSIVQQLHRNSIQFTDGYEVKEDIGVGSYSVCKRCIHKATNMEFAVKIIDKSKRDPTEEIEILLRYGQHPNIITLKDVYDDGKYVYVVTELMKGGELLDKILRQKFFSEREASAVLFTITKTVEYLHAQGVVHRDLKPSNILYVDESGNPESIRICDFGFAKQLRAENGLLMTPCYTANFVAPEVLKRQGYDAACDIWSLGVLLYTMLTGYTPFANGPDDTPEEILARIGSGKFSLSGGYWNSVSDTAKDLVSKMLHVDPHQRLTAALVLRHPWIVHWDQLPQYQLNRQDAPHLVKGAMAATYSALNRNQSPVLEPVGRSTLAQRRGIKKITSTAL
T2 sequence (Q15418 whole entry): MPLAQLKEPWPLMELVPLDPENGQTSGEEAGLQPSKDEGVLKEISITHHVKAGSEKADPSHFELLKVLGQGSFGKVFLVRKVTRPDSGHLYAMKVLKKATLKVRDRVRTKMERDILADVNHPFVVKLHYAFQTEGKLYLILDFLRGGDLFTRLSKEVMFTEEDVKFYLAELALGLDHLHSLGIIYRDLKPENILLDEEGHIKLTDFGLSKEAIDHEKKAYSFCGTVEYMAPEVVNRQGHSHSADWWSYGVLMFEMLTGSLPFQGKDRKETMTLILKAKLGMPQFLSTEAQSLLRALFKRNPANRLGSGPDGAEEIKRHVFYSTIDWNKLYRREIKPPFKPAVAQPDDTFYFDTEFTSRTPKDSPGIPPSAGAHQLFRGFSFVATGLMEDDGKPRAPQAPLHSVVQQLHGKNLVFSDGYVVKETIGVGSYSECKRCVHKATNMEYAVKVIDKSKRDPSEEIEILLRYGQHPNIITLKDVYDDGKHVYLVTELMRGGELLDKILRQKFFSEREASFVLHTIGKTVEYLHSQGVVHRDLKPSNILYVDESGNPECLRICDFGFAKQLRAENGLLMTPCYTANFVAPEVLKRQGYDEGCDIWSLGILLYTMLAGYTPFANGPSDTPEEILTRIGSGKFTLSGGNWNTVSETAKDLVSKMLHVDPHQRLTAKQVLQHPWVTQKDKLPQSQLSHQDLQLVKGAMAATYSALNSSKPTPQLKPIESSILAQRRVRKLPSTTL

Consider `C[C@@H]1CNC(=O)c2cc3ccc(C(=O)Nc4cnn(Cc5ccc(N6CCN(Cc7ccc(N8CCC(=O)NC8=O)cn7)CC6)cc5)c4)nc3n21` [GT-07929, (R)-N-(1-(4-(4-((5-(2,4-dioxotetrahydropyrimidin-1(2H)-yl)pyridin-2-yl)methyl)piperazin-1-yl)benzyl)-1H-pyrazol-4-yl)-9-methyl-6-oxo-6,7,8,9-tetrahydropyrido[3',2':4,5]py rrolo[1,2-a]pyrazine-2-carboxamide], for which, at RSK2, the “Degradation of substrate protein RSK2 (substrate protein remaining %)” value is given as “B (B is defined as substrate protein remaining % > 80%)”. On RSK1, the “Degradation of substrate protein RSK1 (substrate protein remaining %)” value was “A (A is defined as 0% ≤ substrate protein remaining % ≤ 80%)”.
In the case of `C[C@@H]1CNC(=O)c2cc3ccc(C(=O)Nc4cnn(Cc5ccc(N6CCN(Cc7ccc(N8CCC(=O)NC8=O)nc7)CC6)cc5)c4)nc3n21` [GT-07930, (R)-N-(1-(4-(4-((6-(2,4-dioxotetrahydropyrimidin-1(2H)-yl)pyridin-3-yl)methyl)piperazin-1-yl)benzyl)-1H-pyrazol-4-yl)-9-methyl-6-oxo-6,7,8,9-tetrahydropyrido[3',2':4,5]py rrolo[1,2-a]pyrazine-2-carboxamide], the “Degradation of substrate protein RSK2 (substrate protein remaining %)” value at RSK2 is given as “B (B is defined as substrate protein remaining % > 80%)”. Also, at RSK1, the “Degradation of substrate protein RSK1 (substrate protein remaining %)” value is reported as “A (A is defined as 0% ≤ substrate protein remaining % ≤ 80%)”.
As to `C[C@@H]1CNC(=O)c2cc3ccc(C(=O)Nc4cnn(Cc5ccc(N6CCN(Cc7cccc(NC8CCC(=O)NC8=O)c7)CC6)cc5)c4)nc3n21` (stereo partly drawn) [GT-07931, (9R)-N-(1-(4-(4-(3-((2,6-dioxopiperidin-3-yl)amino)benzyl)piperazin-1-yl)benzyl)-1H-pyrazol-4-yl)-9-methyl-6-oxo-6,7,8,9-tetrahydropyrido[3',2':4,5]py rrolo[1,2-a]pyrazine-2-carboxamide], at RSK2, the “Degradation of substrate protein RSK2 (substrate protein remaining %)” value is listed as “A (A is defined as 0% ≤ substrate protein remaining % ≤ 80%)”. The “Degradation of substrate protein RSK1 (substrate protein remaining %)” value on RSK1 is listed as “A (A is defined as 0% ≤ substrate protein remaining % ≤ 80%)”.
Take `C[C@@H]1CNC(=O)c2cc3ccc(C(=O)Nc4cnn(Cc5ccc(N6CCN(Cc7cc(C8CCC(=O)NC8=O)cnc7F)CC6)cc5)c4)nc3n21` (stereo partly drawn) [GT-07932, (9R)-N-(1-(4-(4-((5-(2,6-dioxopiperidin-3-yl)-2-fluoropyridin-3-yl)methyl)piperazin-1-yl)benzyl)-1H-pyrazol-4-yl)-9-methyl-6-oxo-6,7,8,9-tetrahydropyrido[3',2':4,5]py rrolo[1,2-a]pyrazine-2-carboxamide]: the “Degradation of substrate protein RSK2 (substrate protein remaining %)” value at RSK2 is “B (B is defined as substrate protein remaining % > 80%)”. Moreover, the “Degradation of substrate protein RSK1 (substrate protein remaining %)” value at RSK1 was “A (A is defined as 0% ≤ substrate protein remaining % ≤ 80%)”.
For `C[C@@H]1CNC(=O)c2cc3ccc(C(=O)Nc4cnn(Cc5ccc(N6CCN(Cc7ncc(C8CCC(=O)NC8=O)cc7F)CC6)cc5)c4)nc3n21` (stereo partly drawn) [GT-07933, (9R)-N-(1-(4-(4-((5-(2,6-dioxopiperidin-3-yl)-3-fluoropyridin-2-yl)methyl)piperazin-1-yl)benzyl)-1H-pyrazol-4-yl)-9-methyl-6-oxo-6,7,8,9-tetrahydropyrido[3',2':4,5]py rrolo[1,2-a]pyrazine-2-carboxamide], in that order: “B (B is defined as substrate protein remaining % > 80%)” and “A (A is defined as 0% ≤ substrate protein remaining % ≤ 80%)”.
On the same counts, the results for `C[C@@H]1CNC(=O)c2cc3ccc(C(=O)Nc4cnn(Cc5ccc(N6CCN(Cc7cncc(C8CCC(=O)NC8=O)c7)CC6)cc5)c4)nc3n21` (stereo partly drawn) [GT-07934, (9R)-N-(1-(4-(4-((5-(2,6-dioxopiperidin-3-yl)pyridin-3-yl)methyl)piperazin-1-yl)benzyl)-1H-pyrazol-4-yl)-9-methyl-6-oxo-6,7,8,9-tetrahydropyrido[3',2':4,5]py rrolo[1,2-a]pyrazine-2-carboxamide] are “B (B is defined as substrate protein remaining % > 80%)” and “A (A is defined as 0% ≤ substrate protein remaining % ≤ 80%)”.
On the same counts, the results for `C[C@@H]1CNC(=O)c2cc3ccc(C(=O)Nc4cnn(Cc5ccc(N6CCN(Cc7cc(N8CCC(=O)NC8=O)cnc7F)CC6)cc5)c4)nc3n21` [GT-07935, (R)-N-(1-(4-(4-((5-(2,4-dioxotetrahydropyrimidin-1(2H)-yl)-2-fluoropyridin-3-yl)methyl)piperazin-1-yl)benzyl)-1H-pyrazol-4-yl)-9-methyl-6-oxo-6,7,8,9-tetrahydropyrido[3',2':4,5]py rrolo[1,2-a]pyrazine-2-carboxamide] are “B (B is defined as substrate protein remaining % > 80%)” and “A (A is defined as 0% ≤ substrate protein remaining % ≤ 80%)”.
Turning to `C[C@@H]1CNC(=O)c2cc3ccc(C(=O)Nc4cnn(Cc5ccc(N6CCN(Cc7cnc(N8CCC(=O)NC8=O)cn7)CC6)cc5)c4)nc3n21` [GT-07936, (R)-N-(1-(4-(4-((5-(2,4-dioxotetrahydropyrimidin-1(2H)-yl)pyrazin-2-yl)methyl)piperazin-1-yl)benzyl)-1H-pyrazol-4-yl)-9-methyl-6-oxo-6,7,8,9-tetrahydropyrido[3',2':4,5]py rrolo[1,2-a]pyrazine-2-carboxamide], the “Degradation of substrate protein RSK2 (substrate protein remaining %)” value at RSK2 was “B (B is defined as substrate protein remaining % > 80%)”. Further, the “Degradation of substrate protein RSK1 (substrate protein remaining %)” value on RSK1 is reported as “A (A is defined as 0% ≤ substrate protein remaining % ≤ 80%)”.
For `C[C@@H]1CNC(=O)c2cc3ccc(C(=O)Nc4cnn(Cc5ccc(N6CCC(N(C)Cc7ccc(C8CCC(=O)NC8=O)cc7)CC6)cc5)c4)nc3n21` (stereo partly drawn) [GT-07937, (9R)-N-(1-(4-(4-((4-(2,6-dioxopiperidin-3-yl)benzyl)(methyl)amino)piperidin-1-yl)benzyl)-1H-pyrazol-4-yl)-9-methyl-6-oxo-6,7,8,9-tetrahydropyrido[3',2':4,5]py rrolo[1,2-a]pyrazine-2-carboxamide], in that order: “B (B is defined as substrate protein remaining % > 80%)” and “A (A is defined as 0% ≤ substrate protein remaining % ≤ 80%)”.
Turning to `C[C@@H]1CNC(=O)c2cc3ccc(C(=O)Nc4cnn(Cc5ccc(N6CCC(N(C)Cc7ccc(N8CCC(=O)NC8=O)cc7)CC6)cc5)c4)nc3n21` [GT-07938, (R)-N-(1-(4-(4-((4-(2,4-dioxotetrahydropyrimidin-1(2H)-yl)benzyl)(methyl)amino)piperidin-1-yl)benzyl)-1H-pyrazol-4-yl)-9-methyl-6-oxo-6,7,8,9-tetrahydropyrido[3',2':4,5]py rrolo[1,2-a]pyrazine-2-carboxamide], the “Degradation of substrate protein RSK2 (substrate protein remaining %)” value on RSK2 is “B (B is defined as substrate protein remaining % > 80%)”. The “Degradation of substrate protein RSK1 (substrate protein remaining %)” value on RSK1 is listed as “A (A is defined as 0% ≤ substrate protein remaining % ≤ 80%)”.
For `C[C@@H]1CNC(=O)c2cc3ccc(C(=O)Nc4cnn(Cc5ccc(N6CCC(N(C)Cc7cccc(N8CCC(=O)NC8=O)c7)CC6)cc5)c4)nc3n21` [GT-07939, (R)-N-(1-(4-(4-((3-(2,4-dioxotetrahydropyrimidin-1(2H)-yl)benzyl)(methyl)amino)piperidin-1-yl)benzyl)-1H-pyrazol-4-yl)-9-methyl-6-oxo-6,7,8,9-tetrahydropyrido[3',2':4,5]py rrolo[1,2-a]pyrazine-2-carboxamide], in that order: “B (B is defined as substrate protein remaining % > 80%)” and “A (A is defined as 0% ≤ substrate protein remaining % ≤ 80%)”.
For `C[C@@H]1CNC(=O)c2cc3ccc(C(=O)Nc4cnn(Cc5ccc(N6CCC(N(C)Cc7ccc(N8CCC(=O)NC8=O)cn7)CC6)cc5)c4)nc3n21` [GT-07940, (R)-N-(1-(4-(4-(((5-(2,4-dioxotetrahydropyrimidin-1(2H)-yl)pyridin-2-yl)methyl)(methyl)amino)piperidin-1-yl)benzyl)-1H-pyrazol-4-yl)-9-methyl-6-oxo-6,7,8,9-tetrahydropyrido[3',2':4,5]py rrolo[1,2-a]pyrazine-2-carboxamide], at RSK2, the “Degradation of substrate protein RSK2 (substrate protein remaining %)” value is on record as “A (A is defined as 0% ≤ substrate protein remaining % ≤ 80%)”. Moreover, at RSK1, the “Degradation of substrate protein RSK1 (substrate protein remaining %)” value is given as “A (A is defined as 0% ≤ substrate protein remaining % ≤ 80%)”.
